Measurements reported in paper PMC5222924, “Synergistic interplay of Gβγ and phosphatidylinositol 4,5-bisphosphate dictates Kv7.4 channel activity” (Pflugers Archiv, 2016).

What was measured:
[1] = target: Kv7.4 channel (UniProt P56696)
[2] = target: T1, Kv7.4 (Homo sapiens, UniProt P56696); experiment: whole-cell patch clamp; type: cell-based; details: room temperature; opener, concentration not given; common approximate value for three openers
T1 construct: gene KCNQ4; full-length channel, homomer, stably expressed in HEK293 cells (line a gift from the University of Copenhagen)
T1 sequence (P56696 1-695): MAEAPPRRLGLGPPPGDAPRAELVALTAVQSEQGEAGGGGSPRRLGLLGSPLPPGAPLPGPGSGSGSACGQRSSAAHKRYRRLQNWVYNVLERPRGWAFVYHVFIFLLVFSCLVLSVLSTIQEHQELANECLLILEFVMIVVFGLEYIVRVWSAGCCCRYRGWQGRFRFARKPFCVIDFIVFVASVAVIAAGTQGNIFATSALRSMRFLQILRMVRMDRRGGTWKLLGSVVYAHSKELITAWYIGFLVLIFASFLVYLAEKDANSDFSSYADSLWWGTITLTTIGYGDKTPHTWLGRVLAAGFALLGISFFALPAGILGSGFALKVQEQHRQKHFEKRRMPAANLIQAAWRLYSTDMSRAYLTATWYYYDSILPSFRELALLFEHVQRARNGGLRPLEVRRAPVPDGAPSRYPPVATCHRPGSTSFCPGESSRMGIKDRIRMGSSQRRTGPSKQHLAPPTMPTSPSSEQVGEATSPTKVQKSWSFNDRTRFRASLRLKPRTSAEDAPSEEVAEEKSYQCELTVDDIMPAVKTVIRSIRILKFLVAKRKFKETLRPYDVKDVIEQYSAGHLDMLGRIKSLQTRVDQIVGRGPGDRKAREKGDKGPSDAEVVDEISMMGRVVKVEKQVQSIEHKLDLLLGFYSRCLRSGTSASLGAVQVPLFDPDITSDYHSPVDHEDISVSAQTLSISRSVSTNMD

[3] = target: T1, Kv7.4; experiment: inside-out patch clamp, single-channel NPo; type: cell-based; details: room temperature; activator applied to excised patch, no added Gβγ; unreliable: saturation not reached, sigmoidal fit of pooled patches

## G-protein βγ subunits from bovine brain (from UniProt P62871 1-340; P63212 1-71) (complex)
[1]
  half maximal stimulation of Kv7.4 channel activity, inside-out excised patches, bath application of Gβγ (0.4–50 ng/ml): 8.1 ng/mL
  increase of whole-cell Kv7.4 current amplitude within 5 min of rupture, intracellular perfusion of active Gβγ (250 ng/ml), control cells: 70%

## NS15370
[2]
  % increase of current at +20 mV: ~ 40%

## PIP2
[3]
  half-maximal stimulation: ~ 117 μM

## CCOC(=O)Nc1ccc(NCc2ccc(F)cc2)cc1N [Retigabine]
[2]
  % increase of current at +20 mV: ~ 40%
